Laboratory results as given in article PMC10591299, “Targeting SHP2 with an Active Site Inhibitor Blocks Signaling and Breast Cancer Cell Phenotypes” (ACS Bio & Med Chem Au, 2023).
Like-named read-outs stand apart in the source and are kept apart here.

Tests used:
SHP1 = biological target: T1, SHP1 (Homo sapiens, UniProt P29350); design: method as in PMID 33043190; settings: previously shown; cited from earlier work
T1 construct: The GST fusion PTP domains of SHP1 and PTP1B were expressed and purified in a fashion similar to that of SHP2; GST; made in house
T1 sequence (P29350 244-515 limits assumed): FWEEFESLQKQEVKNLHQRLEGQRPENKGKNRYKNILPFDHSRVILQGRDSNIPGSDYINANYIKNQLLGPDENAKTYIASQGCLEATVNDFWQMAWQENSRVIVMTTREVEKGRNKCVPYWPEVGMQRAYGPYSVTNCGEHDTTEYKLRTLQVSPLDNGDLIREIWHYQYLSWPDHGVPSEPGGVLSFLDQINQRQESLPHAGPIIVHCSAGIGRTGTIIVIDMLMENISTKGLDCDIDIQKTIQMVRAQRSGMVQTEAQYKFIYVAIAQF

SHP2 [1] = biological target: T2, SHP2 (Homo sapiens, UniProt Q06124); design: method as in PMID 33043190; settings: previously published parent compound, included for comparison; cited from earlier work
T2 construct: the GST fusion of the PTP domains of SHP2, SHP1, and PTP1B were produced and purified as reported by us previously; GST; made in house
T2 sequence (Q06124 247-517 limits assumed): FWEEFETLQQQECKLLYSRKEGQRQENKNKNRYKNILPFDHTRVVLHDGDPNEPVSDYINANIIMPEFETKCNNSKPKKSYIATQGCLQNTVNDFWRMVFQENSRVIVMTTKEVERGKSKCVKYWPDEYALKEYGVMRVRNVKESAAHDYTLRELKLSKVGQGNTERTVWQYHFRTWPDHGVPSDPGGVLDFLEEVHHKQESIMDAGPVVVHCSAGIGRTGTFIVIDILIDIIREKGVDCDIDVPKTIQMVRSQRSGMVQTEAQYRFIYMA

SHP2 [2] = biological target: T2, SHP2; experiment: PTPase assay, GST-fusion PTP domain of SHP2, DiFMUP substrate; format: biochemical; settings: for fold difference: SHP2 IC50 relative to CNBCA
Protocol: After completion of synthesis, both CNBCA and CNBBA were purified on silica gel, and purity was determined by HPLC. The purified compounds were then tested for their effect on the SHP2 enzyme activity and on the activity of the selected control PTPs (SHP1 and PTP1B) by the phosphotyrosyl phosphatase (PTPase) assay as described previously.[30],[31] First, the GST fusion of the PTP domains of SHP2, SHP1, and PTP1B were produced and purified as reported by us previously.[32] The reactions were performed in a buffer containing 10 mM Tris-HCl (pH 7.2), 100 mM NaCl, 1 mM EDTA, 1 mM dithiothreitol (DTT), and 0.01% Tween-20. Briefly, CNBCA or CNBBA was added first in a serial dilution ranging from 100 μM to 97 nM followed by the enzymes (SHP2, SHP1, or PTP1B) to a final concentration of 1 nM. After 5 min of incubation at room temperature, the reactions were started by adding the artificial substrate DiFMUP (6,8-difluoro-4-methylumbelliferyl phosphate) to a final concentration of 20 μM for SHP2, 35 μM for SHP1, and 10 μM for PTP1B in a reaction volume of 100 μL; variations in DiFMUP concentrations reflect the reported Km values for the respective PTPs.[33] The complete mixture was incubated at 37 °C for 20 min, and fluorescence intensity was measured by the Synergy 4 plate reader at the excitation and emission wavelengths of 360 and 460 nm, respectively. The half inhibitory concentration (IC50) value of each compound was calculated and plotted using Graphpad Prism software.
We used the PTPase assay described previously[30],[31] to evaluate the effect of the newly synthesized compounds on the enzymatic activity of SHP2, SHP1, and PTP1B. The PTP domains of the indicated proteins were prepared as reported by us recently.[32] The artificial PTP substrate DiFMUP (6,8-Difluoro-4-Methylumbelliferyl Phosphate) was purchased from Invitrogen. The purified proteins were dialyzed into a phosphatase buffer containing 10 mM Tris-HCl ([…]), 100 mM NaCl, 1.0 mM EDTA, 1.0 mM dithiothreitol (DTT), and 0.01% Tween-20. Briefly, the PTPase reactions were performed in 100 μL volume containing 1 nM enzyme, inhibitors in serial dilutions (12 nM to 100 μM), and DiFMUP to a final concentration of 20 μM for SHP2, 35 μM for SHP1, and 10 μM for PTP1B. Differences in DiFMUP concentrations reflect the reported Km values for each PTP.[37] The mixtures were incubated at 37 °C for 20 min and transferred to 96 well plates, and the fluorescence intensity was measured by a Synergy 4 plate reader at the excitation and emission wavelengths of 360 and 460 nm, respectively. Graphpad Prism software was used to calculate the IC50 values.

fold difference (SHP2 [2]) [fold] | IC50 (SHP2 [2]; PTP domain, 1 nM enzyme, 20 μM DiFMUP, 37 °C 20 min) [µM] | SMILES | selectivity for inhibition of SHP2 over SHP1 (SHP1) | IC50 (SHP2 [1]) [µM]
5.7 | – | CCCCCCCCCOc1c(CCCC(=O)O)cc(-c2ccc(C(=O)O)cc2)cc1CCCC(=O)O [CNBDA] | approximately 25 fold | 5
5.8 | 5.1 | CCCCCCCCCOc1ccc(-c2ccc(CC(=O)O)cc2)cc1CCCC(=O)O [CNBBA, 4-(4′-(carboxymethyl)-4-(nonyloxy)-[1,1′-biphenyl]-3-yl) butanoic acid] | – | –
